How the values were obtained:
Assay in all cases: relative viability (nuclei count vs DMSO), 5 days (fraction); higher = more cells survive
Bleomycin + Trametinib = compound: CC1=C(N=C(N=C1N)[C@H](CC(=O)N)NC[C@@H](C(=O)N)N)C(=O)N[C@@H]([C@H](C2=CN=CN2)OC3C(C(C(C(O3)CO)O)O)OC4C(C(C(C(O4)CO)O)OC(=O)N)O)C(=O)N[C@H](C)[C@H]([C@H](C)C(=O)N[C@@H]([C@@H](C)O)C(=O)NCCC5=NC(=CS5)C6=NC(=CS6)C(=O)NCCC[S+](C)C)O [Bleomycin] + CC(=O)Nc1cccc(-n2c(=O)n(C3CC3)c(=O)c3c(Nc4ccc(I)cc4F)n(C)c(=O)c(C)c32)c1 [Trametinib] (partner 0.02 µM); conditions: main component drawn
Outline: (§1)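 Dosing by pin tool came one day after lung cancer cell lines were seeded in 1536-well plates, using either one drug or a fixed anchor-drug dose plus five library-drug doses (not always all listed) in √10 steps. After 5 days, nuclei were counted on 4× images. Relative viability is treated-well nuclei count divided by vehicle-well nuclei count, and values are medians of duplicate plates.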

Etoposide + Olaparib = compound: COc1cc([C@@H]2c3cc4c(cc3[C@@H](O[C@@H]3O[C@@H]5CO[C@@H](C)O[C@H]5[C@H](O)[C@H]3O)[C@H]3COC(=O)[C@H]23)OCO4)cc(OC)c1O [Etoposide] + O=C(c1cc(Cc2n[nH]c(=O)c3ccccc23)ccc1F)N1CCN(C(=O)C2CC2)CC1 [Olaparib] (partner 8 µM)
Outline: as §1

Etoposide + Pictilisib = compound: COc1cc([C@@H]2c3cc4c(cc3[C@@H](O[C@@H]3O[C@@H]5CO[C@@H](C)O[C@H]5[C@H](O)[C@H]3O)[C@H]3COC(=O)[C@H]23)OCO4)cc(OC)c1O [Etoposide] + CS(=O)(=O)N1CCN(Cc2cc3nc(-c4cccc5[nH]ncc45)nc(N4CCOCC4)c3s2)CC1 [Pictilisib] (partner 1 µM)
Outline: as §1

Bleomycin + Luminespib = compound: CC1=C(N=C(N=C1N)[C@H](CC(=O)N)NC[C@@H](C(=O)N)N)C(=O)N[C@@H]([C@H](C2=CN=CN2)OC3C(C(C(C(O3)CO)O)O)OC4C(C(C(C(O4)CO)O)OC(=O)N)O)C(=O)N[C@H](C)[C@H]([C@H](C)C(=O)N[C@@H]([C@@H](C)O)C(=O)NCCC5=NC(=CS5)C6=NC(=CS6)C(=O)NCCC[S+](C)C)O [Bleomycin] + CCNC(=O)c1noc(-c2cc(C(C)C)c(O)cc2O)c1-c1ccc(CN2CCOCC2)cc1 [Luminespib] (partner 0.01 µM); conditions: main component drawn
Outline: as §1

| Cell Line | relative viability (Bleomycin + Trametinib; first compound 0.01 µM) | relative viability (Bleomycin + Trametinib; first compound 0.03162 µM) | relative viability (Bleomycin + Trametinib; first compound 0.1 µM) | relative viability (Bleomycin + Trametinib; first compound 0.3162 µM) | relative viability (Bleomycin + Trametinib; first compound 1 µM) | relative viability (Etoposide + Olaparib; first compound 0.01 µM) | relative viability (Etoposide + Olaparib; first compound 0.03162 µM) | relative viability (Etoposide + Olaparib; first compound 0.1 µM) | relative viability (Etoposide + Olaparib; first compound 0.3162 µM) | relative viability (Etoposide + Olaparib; first compound 1 µM) | relative viability (Etoposide + Pictilisib; first compound 0.03162 µM) | relative viability (Etoposide + Pictilisib; first compound 0.1 µM) | relative viability (Etoposide + Pictilisib; first compound 0.3162 µM) | relative viability (Etoposide + Pictilisib; first compound 1 µM) | relative viability (Bleomycin + Luminespib; first compound 0.01 µM) | relative viability (Bleomycin + Luminespib; first compound 0.03162 µM) | relative viability (Bleomycin + Luminespib; first compound 0.1 µM) | relative viability (Bleomycin + Luminespib; first compound 0.3162 µM) | relative viability (Bleomycin + Luminespib; first compound 1 µM) | relative viability (Etoposide + Pictilisib; first compound 0.01 µM) |
| --- | --- | --- | --- | --- | --- | --- | --- | --- | --- | --- | --- | --- | --- | --- | --- | --- | --- | --- | --- | --- |
| LCLC-97TM1 | 0.169 | 0.195 | 0.16 | 0.169 | 0.106 | 0.423 | 0.458 | 0.229 | 0.113 | 0.0808 | 0.172 | 0.115 | 0.116 | 0.109 | 0.519 | 0.635 | 0.51 | 0.269 | 0.187 | – |
| LCLC-103H | 0.628 | 0.678 | 0.62 | 0.691 | 0.507 | 0.786 | 0.803 | 0.77 | 0.665 | 0.383 | 0.74 | 0.527 | 0.679 | 0.519 | 0.849 | 0.826 | 0.747 | 0.496 | 0.333 | 0.541 |
| LK-2 | 0.474 | 0.389 | 0.449 | 0.263 | 0.254 | 0.618 | 0.81 | 0.511 | 0.287 | 0.205 | 0.572 | 0.407 | 0.476 | 0.26 | 0.172 | 0.15 | 0.185 | 0.161 | 0.169 | 0.573 |
| NCI-H522 | 0.776 | 0.705 | 0.763 | 0.433 | 0.379 | 0.593 | 0.724 | 0.811 | 0.59 | 0.539 | – | – | – | – | 0.775 | 0.66 | 0.508 | 0.319 | 0.414 | – |
| NCI-H1299 | – | – | – | – | – | 0.954 | 0.964 | 0.936 | 0.833 | 0.65 | 0.672 | 0.641 | 0.644 | 0.332 | – | – | – | – | – | 0.777 |
| NCI-H1563 | – | – | – | – | – | – | – | – | – | – | 0.653 | 0.61 | 0.501 | 0.555 | 0.512 | 0.535 | 0.479 | 0.487 | 0.465 | 0.661 |
| NCI-H1623 | – | – | – | – | – | – | – | – | – | – | – | – | – | – | 0.396 | 0.474 | 0.525 | 0.343 | 0.31 | – |
| NCI-H1648 | 0.388 | 0.4 | 0.416 | 0.269 | 0.295 | – | 0.885 | 0.758 | 0.757 | 0.358 | – | – | – | – | – | – | – | – | – | – |
| NCI-H1703 | – | – | – | – | – | 0.366 | 0.465 | 0.424 | 0.246 | 0.179 | 0.313 | 0.269 | 0.214 | 0.171 | – | – | – | – | – | 0.234 |
| NCI-H2342 | 0.896 | 0.737 | 0.758 | 0.577 | 0.576 | 0.474 | 0.398 | 0.267 | 0.208 | 0.211 | – | – | – | – | 0.646 | 0.665 | 0.693 | 0.523 | 0.525 | – |
| SW 900 | 0.858 | 0.561 | 0.453 | 0.259 | 0.197 | 0.913 | 0.924 | 0.968 | 0.359 | 0.224 | – | – | – | – | 0.187 | 0.166 | 0.199 | 0.185 | 0.183 | – |
